Columns and labels:
[1] = test system: rats rendered neuropathic via the SNI Model; experiment: Analgesic effect in spared nerve injury (SNI) model of neuropathic pain; type: in vivo, Sprague-Dawley rats; conditions: mean ± standard error of the mean
Method: (§1) Adult, male Sprague-Dawley rats were obtained from Charles River Laboratories (Wilmington, Mass.) and housed under standard conditions at the Institut Armand-Frappier (Laval, QC). Food and water were provided to experimental animals ad libitum, and rats weighed 175-200 grams at the time of assessment.
(§2) Compounds were prepared for intraperitoneal administration by dissolving them in a vehicle of hydroxypropyl methylcellulose (Sigma, St-Louis, Mo.); total volume of solution administered to rats was 10 ml/kg.
Neuropathic pain was induced in rats via spared nerve injury (SNI) of the left sciatic nerve in accordance with the procedure described by Decosterd & Woolf (Pain 2000; 87(2):149-58). Briefly, under isoflurane anesthesia, the sciatic nerve was exposed by dissection at the level of lower thigh, and a lesion of two of the three terminal branches of the nerve (tibial and common peroneal nerves) were performed leaving the remaining sural nerve intact. The incision was closed-up using simple suturing, and the rats allowed to recover.
(§3) After approximately two weeks, a stable allodynia to blunt mechanical stimuli was identified in the hind paw ipsilateral to the SNI or CCI, manifested as a reduction of 50% withdrawal threshold, and identified using the Von Frey technique, as described by Chaplan et al. (J. Neurosci. Methods 1994; 53(1):55-63), or the Hargreaves method, as described by Hargreaves et al. (Pain 1988; 32(1):77-88). Rats were considered to be fully neuropathic upon displaying a 50% withdrawal threshold of ≦3.5 grams consistently over the course of 72 hours.
(§4) Compounds were administered to neuropathic rats via acute local delivery in the intraperitoneal space or by oral gavage.

[2] = test system: rats rendered neuropathic via the CCI model; experiment: Analgesic effect in chronic constriction injury (CCI) model of neuropathic pain; type: in vivo, Sprague-Dawley rats; conditions: mean ± standard error of the mean
Method: as §1, §2
Alternatively, neuropathic pain was induced in rats via chronic constriction injury (CCI) of the left sciatic nerve with the procedure described by Bennett & Xie (Pain 1988; 33(1):87-107). Briefly, under isoflurane anaesthesia, the sciatic nerve was exposed by dissection at the level of the lower thigh and four loose ligatures (USP 4/0, Braun Melsaugen, FRG) were implanted around the nerve—with due attention not to interrupt the epineural circulation. The incision was closed-up using simple suturing, and the rats allowed to recover.
as §3, §4

[3] = test system: mice subjected to the Minimal Clonic Seizure model; experiment: Minimal Clonic Seizure test (psychomotor seizure model of partial epilepsy, 6 Hz); type: in vivo; conditions: 100 mg/kg intraperitoneally, 32 mA, 3 seconds
Method: Adult mice are pretreated with 100 mg/kg of test compound, acutely administered intraperitoneally. At varying times (15, 30, 60, 120 and 240 minutes post-treatment), animals are challenged with sufficient current (32 mA, 6 Hz, for 3 seconds) delivered through corneal electrodes to elicit a psychomotor seizure. Untreated mice will display seizures characterized by a minimal clonic phase followed by stereotyped, automatistic behaviors similar to the aura of human patients with partial seizures. Animals not displaying this behavior are considered protected (Barton et al., Epilepsy Res. 2001; 47(3):217-27). Results are expressed as the number of animal protected out of the number of animal tested over time.

Structure (SMILES) | Peak 50% withdrawal threshold [1] | Peak paw withdrawal latency [2] | also measured
Cc1cc(O)nc(SCc2c(Cl)ccnc2Cl)n1 [2-{[(2,4-dichloropyridin-3-yl)methyl]sulfanyl}-6-methylpyrimidin-4-ol] | 7.74 ± 2.13 g | – | –
CCc1ncccc1CSc1nc(C)cc(O)n1 [2-{[(2-ethylpyridin-3-yl)methyl]sulfanyl}-6-methylpyrimidin-4-ol] | – | 10.46 ± 1.16 s | –
Oc1cc(C(F)(F)F)nc(SCc2c(Cl)cncc2Cl)n1 [2-{[(3,5-dichloropyridin-4-yl)methyl]sulfanyl}-6-(trifluoromethyl)pyrimidin-4-ol] | 5.77 ± 1.01 g | 11.7 ± 1.43 s | –
Cc1cc(O)nc(SCc2c(Cl)cncc2Cl)n1 [2-{[(3,5-dichloropyridin-4-yl)methyl]sulfanyl}-6-methylpyrimidin-4-ol] | 9.13 ± 1.60 g | 14.49 ± 1.24 s | Protected Animals/tested animals ([3]; 15 minutes post-treatment): 3/4; Protected Animals/tested animals ([3]; 30 minutes post-treatment): 3/4; Protected Animals/tested animals ([3]; 60 minutes post-treatment): 3/4; Protected Animals/tested animals ([3]; 120 minutes post-treatment): 1/4; Protected Animals/tested animals ([3]; 240 minutes post-treatment): 0/4
CCc1cncc(CC)c1CSc1nc(O)cc(C(F)(F)F)n1 [2-{[(3,5-diethylpyridin-4-yl)methyl]sulfanyl}-6-(trifluoromethyl)pyrimidin-4-ol] | 6.04 ± 1.17 g | – | –
CCc1cncc(Cl)c1CSc1nc(C)cc(O)n1 [2-{[(3-chloro-5-ethylpyridin-4-yl)methyl]sulfanyl}-6-methylpyrimidin-4-ol] | 8.73 ± 1.75 g | – | –
Cc1cc(O)nc(SCc2nn(C)cc2Cl)n1 [2-{[(4-chloro-1-methyl-1H-pyrazol-3-yl)methyl]sulfanyl}-6-methylpyrimidin-4-ol] | – | 11.98 ± 1.71 s | –
Cc1cc(O)nc(SCc2c(Cl)ccc(Cl)c2Cl)n1 [6-methyl-2-{[(2,3,6-trichlorophenyl)methyl]sulfanyl}pyrimidin-4-ol] | 6.24 ± 1.48 g | – | Protected Animals/tested animals ([3]; 15 minutes post-treatment): 1/4; Protected Animals/tested animals ([3]; 30 minutes post-treatment): 3/4; Protected Animals/tested animals ([3]; 60 minutes post-treatment): 2/4; Protected Animals/tested animals ([3]; 120 minutes post-treatment): 1/4; Protected Animals/tested animals ([3]; 240 minutes post-treatment): 0/4
CCc1ncsc1CSc1nc(O)cc(C(F)(F)F)n1 [Example 164, 2-{[(4-ethyl-1,3-thiazol-5-yl)methyl]sulfanyl}-6-(trifluoromethyl)pyrimidin-4-ol] | – | 10.45 ± 0.47 s | –

Source: US9040538B2, “Pyrimidines as novel therapeutic agents” (Universite Laval, priority 2009, dated 2015)
